Reference: patent publication US12077503B2, “Substituted cyclic amides and their use as herbicides” (FMC CORPORATION, priority 2015, dated 2024)

Columns and labels:
Assay type in all cases: in vivo
[1] = test system: barnyardgrass (Echinochloa crus-galli); assay: Test G Pre-Emergence Protocol; conditions: Echinochloa crus-galli, pre-emergence, 312 h, evaluated after 13 days; for pest or weed control at 15.625 g/ha: 15.625 g ai/ha, read-out: Barnyard grass damage rating (100=total damage to plant; 0=no damage to plant); for pest or weed control at 62.5 g/ha: 62.5 g ai/ha, 100=total damage to plant, 0=no damage to plant, read-out: plant damage rating, Barnyardgrass; for pest or weed control at 250 g/ha: 250 g ai/ha, read-out: Barnyardgrass damage rating (100=total damage to plant; 0=no damage to plant)
Method in brief: (§1)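 Scores are visual damage ratings from 0 (no damage) to 100 (total plant kill), taken 13 days after treatment. Compound was sprayed one day post-sowing at 15.625, 62.5 or 250 g/ha in 50:50 acetone/water with 0.5% Tween 20.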

corn (Zea mays) [2] = assay: Test G Pre-Emergence Protocol; conditions: Zea mays, pre-emergence, 312 h, evaluated after 13 days; for plant injury at 15.625 g/ha: 15.625 g ai/ha; for plant injury at 15.625 g/ha / plant injury at 250 g/ha: read-out: Corn damage rating (100=total damage to plant; 0=no damage to plant); for plant injury at 62.5 g/ha: 62.5 g ai/ha, 100=total damage to plant, 0=no damage to plant, read-out: plant damage rating, Corn; for plant injury at 250 g/ha: 250 g ai/ha
Method in brief: as §1

[3] = test system: giant foxtail (Setaria faberi); assay: Test G Pre-Emergence Protocol; conditions: Setaria faberi, pre-emergence, 312 h, evaluated after 13 days; for pest or weed control at 15.625 g/ha: 15.625 g ai/ha; for pest or weed control at 15.625 g/ha / pest or weed control at 250 g/ha: read-out: Foxtail, Giant damage rating (100=total damage to plant; 0=no damage to plant); for pest or weed control at 62.5 g/ha: 62.5 g ai/ha, 100=total damage to plant, 0=no damage to plant, read-out: plant damage rating, Foxtail, Giant; for pest or weed control at 250 g/ha: 250 g ai/ha
Method in brief: as §1

[4] = test system: ivy-leaved morning glory (Ipomoea hederacea); assay: Test G Pre-Emergence Protocol; conditions: Ipomoea, pre-emergence, 312 h, evaluated after 13 days; for pest or weed control at 15.625 g/ha: 15.625 g ai/ha, read-out: Morning-glory, Ivy-leaved damage rating (100=total damage to plant; 0=no damage to plant); for pest or weed control at 62.5 g/ha: 62.5 g ai/ha, 100=total damage to plant, 0=no damage to plant, read-out: plant damage rating, Morningglory, Ivy-leaved; for pest or weed control at 250 g/ha: 250 g ai/ha, read-out: Morningglory, Ivy-leaved damage rating (100=total damage to plant; 0=no damage to plant)
Method in brief: as §1

[5] = test system: redroot pigweed (Amaranthus retroflexus); assay: Test G Pre-Emergence Protocol; conditions: Amaranthus retroflexus, pre-emergence, 312 h, evaluated after 13 days; for pest or weed control at 15.625 g/ha: 15.625 g ai/ha; for pest or weed control at 15.625 g/ha / pest or weed control at 250 g/ha: read-out: Pigweed, Redroot damage rating (100=total damage to plant; 0=no damage to plant); for pest or weed control at 62.5 g/ha: 62.5 g ai/ha, 100=total damage to plant, 0=no damage to plant, read-out: plant damage rating, Pigweed, Redroot; for pest or weed control at 250 g/ha: 250 g ai/ha
Method in brief: as §1

[6] = test system: velvetleaf (Abutilon theophrasti); assay: Test G Pre-Emergence Protocol; conditions: Abutilon theophrasti, pre-emergence, 312 h, evaluated after 13 days; for pest or weed control at 15.625 g/ha: 15.625 g ai/ha; for pest or weed control at 15.625 g/ha / pest or weed control at 250 g/ha: read-out: Velvetleaf damage rating (100=total damage to plant; 0=no damage to plant); for pest or weed control at 62.5 g/ha: 62.5 g ai/ha, 100=total damage to plant, 0=no damage to plant, read-out: plant damage rating, Velvetleaf; for pest or weed control at 250 g/ha: 250 g ai/ha
Method in brief: as §1

[7] = test system: barnyardgrass (Echinochloa crus-galli); assay: Test G Post-Emergence Protocol; conditions: Echinochloa crus-galli, post-emergence, 312 h; for pest or weed control at 15.625 g/ha: 15.625 g ai/ha, evaluated after 13 days (100=total damage to plant; 0=no damage to plant), read-out: Barnyardgrass damage rating; for pest or weed control at 62.5 g/ha: 62.5 g ai/ha, read-out: Barnyardgrass damage rating (100=total damage to plant; 0=no damage to plant); for pest or weed control at 62.5 g/ha / pest or weed control at 250 g/ha: evaluated after 13 days; for pest or weed control at 250 g/ha: 250 g ai/ha, read-out: damage to plant, Barnyardgrass (100=total damage to plant; 0=no damage to plant)
Method in brief: (§2)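 Values are percent visual injury at 13 days after treatment (0 none, 100 total). Treatment was a post-emergence spray at 15.625, 62.5 or 250 g/ha on 8-day-old pot plants kept at 24/16 °C.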

corn (Zea mays) [8] = assay: Test G Post-Emergence Protocol; conditions: Zea mays, post-emergence, 312 h; for plant injury at 15.625 g/ha: 15.625 g ai/ha, evaluated after 13 days (100=total damage to plant; 0=no damage to plant), read-out: Corn damage rating; for plant injury at 62.5 g/ha: 62.5 g ai/ha, read-out: Corn damage rating (100=total damage to plant; 0=no damage to plant); for plant injury at 62.5 g/ha / plant injury at 250 g/ha: evaluated after 13 days; for plant injury at 250 g/ha: 250 g ai/ha, read-out: damage to plant, Corn (100=total damage to plant; 0=no damage to plant)
Method in brief: as §2

[9] = test system: giant foxtail (Setaria faberi); assay: Test G Post-Emergence Protocol; conditions: Setaria faberi, post-emergence, 312 h; for pest or weed control at 15.625 g/ha: 15.625 g ai/ha, evaluated after 13 days (100=total damage to plant; 0=no damage to plant), read-out: Foxtail, Giant damage rating; for pest or weed control at 62.5 g/ha: 62.5 g ai/ha, read-out: Foxtail, Giant damage rating (100=total damage to plant; 0=no damage to plant); for pest or weed control at 62.5 g/ha / pest or weed control at 250 g/ha: evaluated after 13 days; for pest or weed control at 250 g/ha: 250 g ai/ha, read-out: damage to plant, Foxtail, Giant (100=total damage to plant; 0=no damage to plant)
Method in brief: as §2

[10] = test system: ivy-leaved morning glory (Ipomoea hederacea); assay: Test G Post-Emergence Protocol; conditions: Ipomoea, post-emergence, 312 h; for pest or weed control at 15.625 g/ha: 15.625 g ai/ha, evaluated after 13 days (100=total damage to plant; 0=no damage to plant), read-out: Morningglory, Ivy-leaved damage rating; for pest or weed control at 62.5 g/ha: 62.5 g ai/ha, read-out: Morningglory, Ivy-leaved damage rating (100=total damage to plant; 0=no damage to plant); for pest or weed control at 62.5 g/ha / pest or weed control at 250 g/ha: evaluated after 13 days; for pest or weed control at 250 g/ha: 250 g ai/ha, read-out: damage to plant, Morningglory, Ivy-leaved (100=total damage to plant; 0=no damage to plant)
Method in brief: as §2

[11] = test system: redroot pigweed (Amaranthus retroflexus); assay: Test G Post-Emergence Protocol; conditions: Amaranthus retroflexus, post-emergence, 312 h; for pest or weed control at 15.625 g/ha: 15.625 g ai/ha, evaluated after 13 days (100=total damage to plant; 0=no damage to plant), read-out: Pigweed, Redroot damage rating; for pest or weed control at 62.5 g/ha: 62.5 g ai/ha, read-out: Pigweed, Redroot damage rating (100=total damage to plant; 0=no damage to plant); for pest or weed control at 62.5 g/ha / pest or weed control at 250 g/ha: evaluated after 13 days; for pest or weed control at 250 g/ha: 250 g ai/ha, read-out: damage to plant, Pigweed, Redroot (100=total damage to plant; 0=no damage to plant)
Method in brief: as §2

[12] = test system: velvetleaf (Abutilon theophrasti); assay: Test G Post-Emergence Protocol; conditions: Abutilon theophrasti, post-emergence, 312 h; for pest or weed control at 15.625 g/ha: 15.625 g ai/ha, evaluated after 13 days (100=total damage to plant; 0=no damage to plant), read-out: Velvetleaf damage rating; for pest or weed control at 62.5 g/ha: 62.5 g ai/ha, read-out: Velvetleaf damage rating (100=total damage to plant; 0=no damage to plant); for pest or weed control at 62.5 g/ha / pest or weed control at 250 g/ha: evaluated after 13 days; for pest or weed control at 250 g/ha: 250 g ai/ha, read-out: damage to plant, Velvetleaf (100=total damage to plant; 0=no damage to plant)
Method in brief: as §2

| SMILES | pest or weed control at 15.625 g/ha [1] | pest or weed control at 62.5 g/ha [1] | pest or weed control at 250 g/ha [1] | plant injury at 15.625 g/ha (corn (Zea mays) [2]) | plant injury at 62.5 g/ha (corn (Zea mays) [2]) | plant injury at 250 g/ha (corn (Zea mays) [2]) | pest or weed control at 15.625 g/ha [3] | pest or weed control at 62.5 g/ha [3] | pest or weed control at 250 g/ha [3] | pest or weed control at 62.5 g/ha [4] | pest or weed control at 250 g/ha [4] | pest or weed control at 15.625 g/ha [5] | pest or weed control at 62.5 g/ha [5] | pest or weed control at 250 g/ha [5] | pest or weed control at 15.625 g/ha [6] | pest or weed control at 62.5 g/ha [6] | pest or weed control at 250 g/ha [6] | pest or weed control at 15.625 g/ha [7] | pest or weed control at 62.5 g/ha [7] | pest or weed control at 250 g/ha [7] | also measured |
| --- | --- | --- | --- | --- | --- | --- | --- | --- | --- | --- | --- | --- | --- | --- | --- | --- | --- | --- | --- | --- | --- |
| CN1C[C@@H](c2ccc(C(F)(F)F)cc2)[C@H](C(=O)Nc2cc(C(F)(F)F)[nH]n2)C1=O (racemic) [Compound 1530] | 0% | 0% | 0% | 0% | 0% | 0% | 0% | 0% | 0% | 0% | 0% | 0% | 0% | 0% | 0% | 0% | 0% | 0% | 0% | 0% | pest or weed control at 15.625 g/ha [4]: 0%; plant injury at 15.625 g/ha (corn (Zea mays) [8]): 0%; plant injury at 62.5 g/ha (corn (Zea mays) [8]): 0%; plant injury at 250 g/ha (corn (Zea mays) [8]): 0%; pest or weed control at 15.625 g/ha [9]: 0%; pest or weed control at 62.5 g/ha [9]: 0%; pest or weed control at 250 g/ha [9]: 0%; pest or weed control at 15.625 g/ha [10]: 0%; pest or weed control at 62.5 g/ha [10]: 0%; pest or weed control at 250 g/ha [10]: 0%; pest or weed control at 15.625 g/ha [11]: 0%; pest or weed control at 62.5 g/ha [11]: 0%; pest or weed control at 250 g/ha [11]: 0%; pest or weed control at 15.625 g/ha [12]: 0%; pest or weed control at 62.5 g/ha [12]: 0%; pest or weed control at 250 g/ha [12]: 0% |
| CN1C[C@@H](c2ccc(C(F)(F)F)cc2)[C@H](C(=O)Nc2n[nH]c(C(F)(F)F)n2)C1=O (racemic) [Compound 1540] | 0% | 0% | 0% | 0% | 0% | 0% | 0% | 0% | 0% | 0% | 0% | 0% | 0% | 40% | 0% | 0% | 0% | 0% | 0% | 0% | pest or weed control at 15.625 g/ha [4]: 0%; plant injury at 15.625 g/ha (corn (Zea mays) [8]): 0%; plant injury at 62.5 g/ha (corn (Zea mays) [8]): 10%; plant injury at 250 g/ha (corn (Zea mays) [8]): 10%; pest or weed control at 15.625 g/ha [9]: 0%; pest or weed control at 62.5 g/ha [9]: 0%; pest or weed control at 250 g/ha [9]: 0%; pest or weed control at 15.625 g/ha [10]: 0%; pest or weed control at 62.5 g/ha [10]: 10%; pest or weed control at 250 g/ha [10]: 10%; pest or weed control at 15.625 g/ha [11]: 0%; pest or weed control at 62.5 g/ha [11]: 0%; pest or weed control at 250 g/ha [11]: 20%; pest or weed control at 15.625 g/ha [12]: 0%; pest or weed control at 62.5 g/ha [12]: 0%; pest or weed control at 250 g/ha [12]: 0% |
| Cc1conc1NC(=O)[C@@H]1C(=O)N(C)C[C@H]1c1ccc(C(F)(F)F)cc1 (racemic) [Compound 1553] | 0% | 0% | 0% | 0% | 0% | 0% | 0% | 0% | 0% | 0% | 0% | 0% | 0% | 0% | 0% | 0% | 0% | 0% | 0% | 0% | plant injury at 15.625 g/ha (corn (Zea mays) [8]): 0%; plant injury at 62.5 g/ha (corn (Zea mays) [8]): 0%; plant injury at 250 g/ha (corn (Zea mays) [8]): 0%; pest or weed control at 15.625 g/ha [9]: 0%; pest or weed control at 62.5 g/ha [9]: 0%; pest or weed control at 250 g/ha [9]: 0%; pest or weed control at 15.625 g/ha [10]: 0%; pest or weed control at 62.5 g/ha [10]: 0%; pest or weed control at 250 g/ha [10]: 0%; pest or weed control at 15.625 g/ha [11]: 0%; pest or weed control at 62.5 g/ha [11]: 0%; pest or weed control at 250 g/ha [11]: 0%; pest or weed control at 15.625 g/ha [12]: 0%; pest or weed control at 62.5 g/ha [12]: 0%; pest or weed control at 250 g/ha [12]: 0% |
